Data published in patent publication US20110319811A1 (priority 2010, published 2011).
Like-named read-outs stand apart in the source and are kept apart here.

Experiment: Pharmacokinetic study GW01-0706 under maximal use conditions (serum imiquimod)
Type: in vivo, human
Method: An open label, single center, non-randomized pharmacokinetic (PK) study in adult subjects diagnosed with actinic keratosis (“AK”) is conducted. […] The study is conducted under maximal use conditions (dose, duration, disease severity, and application areas) in a population that had at least 10 AK lesions in the application area. The application area is the entire face (exclusive of nares, vermilion, periocular areas and ears) and/or the entire balding scalp; areas estimated as approximately 200 cm^2. If the area of the entire balding scalp is less than 200 cm^2, the forehead area is included in order for the entire treatment area to be approximately 200 cm^2.
Subjects stay at the study center overnight at treatment initiation (Day 1, 1st dose), and end of treatment (Day 21, last dose) visits for collection of a 24-hour serum PK profile. […] Single serum samples for PK analyses of trough concentrations are obtained at Day 7 and Day 14 (in the morning prior to dosing).
Adverse events, study medication accountability, and dosing compliance are reviewed at each visit. Routine clinical laboratory assessments (serum chemistry, hematology and urinalysis) are performed at Screening, Day 1 (predose), and the end of study visits.
Trough serum concentrations are obtained on Days 7, 14, 21, and 22. The trough concentrations on Days 7 and 14 are obtained during outpatient treatment while the trough concentrations on Days 21 and 22 are obtained while the subjects are dosed in the clinical research facility.

[1] = Steady-State (Day 21), 3.75% imiquimod cream 2 packets daily

For `CC(C)Cn1cnc2c(N)nc3ccccc3c21` [imiquimod, 1-isobutyl-1H-imidazo[4,5-c]-quinolin-4-amine], the “Imiquimod trough concentration, Geometric LS Mean Reference” value (Day 21/14 comparison (Reference = Day 14), subjects with paired, non-zero data, 3.75% imiquimod cream 2 packets daily) was 0.1344 ng/mL, the “Imiquimod trough concentration, Geometric LS Mean Test” value (Day 21/14 comparison (Test = Day 21), subjects with paired, non-zero data, 3.75% imiquimod cream 2 packets daily) was 0.1791 ng/mL and the “λz, Geometric Mean” value [1] was 0.027 h⁻¹. The “λz, Mean” value [1] was 0.029 h⁻¹, the “λz, Median” value [1] was 0.0271 h⁻¹ and the concentration at 7 day (trough) (human, topical) was 0.128 ng/mL. It also gave a concentration at 14 day (trough) (human, topical) of 0.139 ng/mL, a concentration at 21 day (trough) (human, topical) of 0.179 ng/mL and a concentration at 22 day (trough) (human, topical) of 0.167 ng/mL. The AUC(0-t) (human, topical, Steady-State (Day 21), 3.75% imiquimod cream 2 packets daily, read-out: AUC0-24, Geometric Mean) was 5.03 ng·h/mL, the AUC(0-t) (human, topical, Steady-State (Day 21), 3.75% imiquimod cream 2 packets daily, read-out: AUC0-24, Mean) was 5.97 ng·h/mL and the AUC(0-t) (human, topical, Steady-State (Day 21), 3.75% imiquimod cream 2 packets daily, read-out: AUC0-24, Median) was 7.02 ng·h/mL. For the same compound, the Cmax (human, topical, Steady-State (Day 21), 3.75% imiquimod cream 2 packets daily, read-out: Cmax, Geometric Mean) was 0.274 ng/mL, the Cmax (human, topical, Steady-State (Day 21), 3.75% imiquimod cream 2 packets daily, read-out: Cmax, Mean) was 0.323 ng/mL and the Cmax (human, topical, Steady-State (Day 21), 3.75% imiquimod cream 2 packets daily, read-out: Cmax, Median) was 0.35 ng/mL.
